Source: patent publication US20240294570A1, “ENZYMATICALLY FORMING INTRANUCLEAR PEPTIDE ASSEMBLIES FOR SELECTIVELY KILLING INDUCED PLURIPOTENT STEM CELLS” (BRANDEIS UNIVERSITY, priority 2021, published 2024)
Non-standard residues stand in square brackets, D forms with d. Residues, ends and D or L forms follow the SMILES beside them. *: point of attachment. pY = N[C@@H](Cc1ccc(OP(=O)(O)O)cc1)C(=O)O; NBD = O=[N+]([O-])c1ccc(*)c2nonc12; βAla = NCCC(=O)O

Experiments:
[1] = Critical micelle concentration (CMC) measurement with pyrene probe; type: physicochemical
Description: Critical Micelle Concentration ((MC) Measurement: The CMCs were determined using pyrene as the fluorescent probe. Different concentrations of compounds were prepared in pyrene-saturate solutions. The fluorescence spectra of pyrene solutions with different concentration compounds were obtained. The intensity ratio of 378 nm/393 nm (I378/I393) was determined by a Synergy H1 hybrid multi-mode microplate reader. Plot I378/I393 against the concentrations of compounds. The concentration at the turning point is the CMC.

HS-5 cells = test: Cytotoxicity against HS-5 cells (MTT assay); type: cell-based, human; conditions: 400 μM, 2 h
Description: Cell Culture: Human induced pluripotent stem cell line A21 was generated from human normal dermal fibroblasts by using the StemRNA™-NM Reprogramming kit (Stemgent, Cat #00-0076). hiPSCs were routinely cultured and passaged on 6-well plates coated with 0.25 μg/cm^2 iMatrix-511 (Recombinant Laminin-511) (ReproCell) with NutriStem XF/FFTM medium (Biological Industries). HS-5 cell line and HEK293 cell line were purchased from American Type Culture Collection (ATCC, USA). HS-5 cells were cultured in Dulbecco's Modified Eagle Medium (DMEM) supplemented with 10% fetal bovine serum (FBS), 100 U/mL penicillin and 100 μg/mL streptomycin. HEK293 cells were cultured in Minimal Essential Medium (MEM) supplemented with 10% fetal bovine serum (FBS), 100 U/mL penicillin and 100 μg/mL streptomycin. All cells were maintained at 37° C. in a humidified atmosphere of 5% CO2.
Cell Viability of Differentiated Cells: Cytotoxicity against HS-5 cells and HEK293 cells was determined by using MTT assay. […] The absorbance of each well at 595 nm was measured by a DTX880 Multimode Detector. The results were calculated as cell viability percentage relative to untreated cells. […]

ALP = test: Dephosphorylation rate measurement (LC-MS)
Description: The reaction mixtures were analyzed with LC-MS.
Thus, the conversion of the phosphopentapeptides to their corresponding peptides was examined over time.

iPSCs = test: CLSM imaging of peptide assemblies in iPSCs; type: cell-based, human
Description: Confocal Laser Scanning Microscopy (CLSM) Imaging: For live cell imaging, cells in exponential growth phase were seeded in a confocal dish (3.5 cm) at 1.0×10^5 cells per dish and then incubated in incubator for 24 h. We removed culture medium, and added fresh medium containing precursors for different time points. After removing the medium and washing the cells with live cell imaging solution (2 mL×2), the cells were used for CLSM imaging. For time-dependent live cell imaging, cells in exponential growth phase were seeded in a confocal dish (3.5 cm) at 1.0×10^5 cells per dish and then incubated in incubator for 24 h. After removing culture medium, we treated the cells with 1 mL of Hoechst 33342 (1 μg mL^−1) for 10 minutes. After being washed with culture medium (2 mL×2), the cells were incubated with fresh medium containing precursor 5 in a Tokai Hit stage top incubator (STXF-WSKMX-SET) to be used for CLSM imaging. All the CLSM images were obtained using Zeiss LSM 880 confocal microscopy at the lens of 63× with oil. The lasers used are 405 nm and 488 nm.
Because the fluorescence of NBD increases drastically from unassembled to assembled state, confocal laser scanning microscopy (CLSM) was suitable to reveal the cellular location of the peptide assemblies formed after dephosphorylation catalyzed by ALP. […] The blackness in nuclei overlaps well with the strong fluorescence. […] The results confirms that the nucleus-targeting mainly originates from the ALP catalyzed dephosphorylation.
To trace the dynamics of the formation and distribution of 5 inside iPSC cells, time-lapse CLSM was also used to image the changes of the fluorescence in the iPSCs incubated by 5 (400 μM). Using one cell as a representative case, after 6 minutes incubation fluorescent puncta appear on the membrane, likely originating from the aggregates of assemblies of 5 and those of 6 generated by the dephosphorylation catalyzed by ALP. […] After 24 minutes incubation, fluorescence starts to grow in the cytoplasm. Considering the LLLLY motif in SEQ ID NO: 2 constitutes the transmembrane domains of 18 human membrane proteins, it is possible that the affinity of 5 or 6 to membrane allows the assemblies of the mixture of 5 and 6 to interact with cellular membranes, which then facilitates nuclear localization. At about 28 minutes of incubation, fluorescence appears in the nucleus. Moreover, the nuclei shrink after the assemblies emerge in the nuclei. In addition, the nuclei also show nuclear blebbing (Stephens et al., “Chromatin Histone Modifications and Rigidity Affect Nuclear Morphology Independent of Lamins,” Mol. Biol. Cell 29(2):220-233 (2018), which is hereby incorporated by reference in its entirety). The shrinkage of nuclei and nuclear blebbing likely associate with iPSC death. To further examine the dynamics of EISA-formed peptide assemblies in iPSCs over different time, the increase of fluorescence in two cells over 2 hours was monitored; their nuclei, A and B, are shown in FIG. 10A. […] The mean fluorescent intensity in Nucleus A starts to increase at 28 minutes and levels off after 110 minutes. For Nucleus B, the mean fluorescent intensity keeps increasing from 38 minutes. The increases of the fluorescence in the nuclei and nucleoli are synchronous. […] The assemblies inside the nuclei or near nuclear membrane induce nuclear blebbing and shrinkage of nuclei, which likely contributes to the cell death.

[2] = 400 μM, time-lapse CLSM, one representative cell

SMILES: CC(C)C[C@H](NC(=O)CCNc1ccc([N+](=O)[O-])c2nonc12)C(=O)N[C@@H](CC(C)C)C(=O)N[C@@H](CC(C)C)C(=O)N[C@@H](CC(C)C)C(=O)N[C@@H](Cc1ccc(OP(=O)(O)O)cc1)C(=O)O [compound 5, NBD-βA-LLLLpY] ({NBD-βAla}-LLLL[pY]-OH)
- critical micelle concentration (CMC) [1]: 86.1 µM
- cytotoxicity towards HS-5 cells (HS-5 cells): slight cytotoxicity
- fraction hydrolyzed by ALP (ALP; 100 μM, 0.1 U/mL ALP, time point 40 minutes): about 24%
- final dephosphorylation ratio (ALP; 400 μM, 0.1 U/mL ALP): 69.1%
- dephosphorylation ratio (ALP; 400 μM, 0.5 U/mL ALP, after 5 hours of incubation): 93.8%
- fraction turned into 6 (ALP; 0.1 U/mL ALP, after 1 hour of incubation): 32.7%
- fraction turned into 6 (ALP; 0.1 U/mL ALP, after 2 hours of incubation): 49.6%
- half-life at 100 μM (ALP; alkaline phosphatase (ALP) in PBS, half-life of dephosphorylation, 100 μM, 0.5 U/mL ALP): 27.3 min
- half-life at 200 μM (ALP; alkaline phosphatase (ALP) in PBS, half-life of dephosphorylation, 200 μM, 0.5 U/mL ALP): 21.6 min
- half-life at 400 μM (ALP; alkaline phosphatase (ALP) in PBS, half-life of dephosphorylation, 400 μM, 0.1 U/mL ALP): 122 min
- half-life at 400 μM (ALP; alkaline phosphatase (ALP) in PBS, half-life of dephosphorylation, 400 μM, 0.5 U/mL ALP): 30.6 min
- NBD fluorescence in iPSCs (iPSCs; 200 μM): hardly any fluorescence in the cells
- NBD fluorescence in iPSCs with ALP inhibitor (iPSCs; 400 μM plus DQB 5 μM, 2 hours): little fluorescence in cells
- NBD fluorescence in iPSCs (location of peptide assemblies) (iPSCs; 400 μM, 2 hours): strong NBD fluorescence in nuclei
- incubation time at which fluorescence appears in the nucleus (iPSCs; [2]): about 28 minutes
- incubation time at which fluorescence starts to grow in the cytoplasm (iPSCs; [2]): 24 min
- incubation time at which fluorescent puncta appear on the membrane (iPSCs; [2]): 6 min
- NBD fluorescence in iPSC nuclei (iPSCs; 400 μM, treatment time 1 hour): weaker fluorescence
